In publication PMC8305076, “Comprehensive Evaluation of Biological Effects of Pentathiepins on Various Human Cancer Cell Lines and Insights into Their Mode of Action” (International Journal of Molecular Sciences, 2021):

Experiments:
[1] = biological target: T1, bovine erythrocyte GPx1 (Bos taurus, UniProt P00435); parameters: method as in PMID 32311219; key to GPx1 inhibition: no impact (0); weak impact (+); strong impact (++); conditions: cited from earlier work
T1 construct: the isolated enzyme from bovine erythrocytes; purchased Sigma-Aldrich (Taufkirchen, Germany); host or cells: isolated from bovine erythrocytes
T1 sequence (P00435 1-205): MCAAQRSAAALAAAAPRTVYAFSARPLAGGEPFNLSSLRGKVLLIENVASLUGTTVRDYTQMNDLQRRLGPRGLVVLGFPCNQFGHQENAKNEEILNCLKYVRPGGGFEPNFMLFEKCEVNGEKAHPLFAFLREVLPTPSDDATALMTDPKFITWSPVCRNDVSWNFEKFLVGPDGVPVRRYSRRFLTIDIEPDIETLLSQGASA

[2] = system: GR/CAT; parameters: method as in PMID 32311219; key: no impact (0); weak impact (+); strong impact (++); conditions: summary grade; first generation compound; cited from earlier work
[3] = system: panel of 14 human cancer cell lines; parameters: method as in PMID 32311219; key: no impact (0); weak impact (+); strong impact (++); conditions: summary grade; first generation compound; cited from earlier work
[4] = system: panel of 14 human cancer cell lines; parameters: method as in PMID 32311219; key: no impact (0); weak impact (+); strong impact (++); conditions: summary grade; first generation compound; cited from earlier work; remark: listed apart in the source
[5] = system: seven cancer cell lines; parameters: method as in PMID 32311219; key: no impact (0); weak impact (+); strong impact (++); conditions: summary grade; first generation compound; cited from earlier work
[6] = system: pBR322 plasmid DNA; parameters: method as in PMID 32311219; key: no impact (0); weak impact (+); strong impact (++); conditions: summary grade; first generation compound; cited from earlier work
[7] = system: HAP-1, HAP-1.KO.GPx1, and Siso; parameters: method as in PMID 32311219; key: no impact (0); weak impact (+); strong impact (++); conditions: summary grade; first generation compound; cited from earlier work
[8] = system: HAP-1, HAP-1.KO.GPx1, A2780, and Siso; parameters: method as in PMID 32311219; key: no impact (0); weak impact (+); strong impact (++); conditions: summary grade; first generation compound; cited from earlier work
[9] = system: HAP-1, HAP-1.KO.GPx1, A2780 and Siso; parameters: method as in PMID 32311219; key: no impact (0); weak impact (+); strong impact (++); conditions: summary grade; first generation compound; cited from earlier work
[10] = system: HAP-1, HAP-1.KO.GPx1, Siso and A2780 cells; parameters: method as in PMID 32311219; key: no impact (0); weak impact (+); strong impact (++); conditions: summary grade; first generation compound; cited from earlier work
[11] = system: HAP-1.KO.GPx1; experiment: alkaline Comet assay; type: cell-based, human; conditions: 25 µM pentathiepin or 20 µM H2O2, 15 min, 0 °C
Source text: (§1) Next, the potential of the pentathiepins 1–6 to damage nuclear DNA was investigated in the cell lines HAP-1, HAP-1.KO.GPx1, and Siso, with different expression levels of GPx1 and CAT (see Figure 7), by Comet Assay (Figure 12) with representative images in the Supplementary Materials (Figure S48).
(§2) With this assay, the intensity of DNA damage can be assessed on the level of a single cell, in case of the alkaline version detecting both single and double strand breaks as well as alkali-labile sites. The method presented here is an adaptation of the protocol published by Olive and Banath and based on the distinct electrophoretic mobility of damaged and intact genomic DNA. The latter has a low mobility; does thus not migrate in the electric field; and remains in a nucleoid shape after lysis, referred to as the comet head. In contrast, when strand breaks are created, free charged ends emerge and increase the electrophoretic mobility, prompting DNA segments to drift away from the comet head, thereby forming the so-called comet tail. As descriptor of still intact genomic DNA, the percentage of DNA in the comet head was selected. Per condition, 50,000 cells of either Siso, HAP-1, or HAP-1.KO.GPx1 were diluted in 1 mL of PBS and subsequently treated with either a 1% DMF aqueous solution as negative control, 20 µM of H2O2 as positive control, or 25 µM of pentathiepin for 15 min on ice to impair intracellular DNA repair mechanisms. Afterwards, 400 µL of the cell suspension was blended with 1.2 mL of a 1% low melting point agarose solution (40 °C) and smoothly distributed on agarose-precoated glass slides. Polymerization was finished after 3 min at RT, and the slides were horizontally submerged in alkaline lysis buffer (1.2 M NaCl, 0.1% N-lauryl-sarcosinate, 0.1 M Na-EDTA, 0.26 M NaOH) before storing them at 4 °C overnight. The slides were then rinsed three times in rinse/electrophoresis buffer (0.002 M Na-EDTA, 0.03 M NaOH) before electrophoretic separation was performed for 25 min at 0.6 V/cm. A neutralization step by adding distilled water was followed by staining the slides with 250 µL of an aqueous 10 µg/mL PI solution for 20 min. For visualization and image capturing, a DMi8 fluorescent microscope and LASX software (Leica Microsystems, Wetzlar, Germany) were used, and the comets scored with the help of CometScore2.0 (rexhoover.com). Per condition and replicate, at least 100 comets were analyzed to calculate a mean level of damage.

[12] = system: HAP-1; experiment: alkaline Comet assay; type: cell-based, human; conditions: 25 µM pentathiepin or 20 µM H2O2, 15 min, 0 °C
Source text: as §1, §2

[13] = system: Siso; experiment: alkaline Comet assay; type: cell-based, human; conditions: 25 µM pentathiepin or 20 µM H2O2, 15 min, 0 °C
Source text: as §1, §2

[14] = system: HAP-1.KO.GPx1; experiment: annexin V-FITC/PI apoptosis assay; type: cell-based, human; conditions: pentathiepins IC90, doxorubicin 0.5 µM, 24 h
Protocol: As reported in our earlier publication, a representative pentathiepin was capable of inducing apoptosis in cancer cell lines. Here, we tested compounds 1–6 for their ability to trigger this particular modality of cell death in a subset of four cell lines: HAP-1, HAP-1.KO.GPx1, A2780, and Siso. A flow cytometric assay was performed, allowing us to discriminate between viable, early, and late apoptotic cells (representative dot plots can be found in Figure S47). FITC-labeled annexin V was used to assess the externalization of phosphatidyl serine as a hallmark of early apoptosis induction. The addition of propidium iodide (PI) enabled the detection of late apoptotic cells as it only permeates porous cell membranes and exerts fluorescence once bound to double-stranded DNA.
The annexin V-FITC/PI assay, which discriminates between viable, early, and late apoptotic cells within a sample population, was performed according to the manufacturer’s instructions (Miltenyi Biotec, Teterow, Germany). Briefly, 125,000 cells were seeded in 2 mL per well of a 6-well plate, allowed to adhere overnight, and subsequently treated with the respective pentathiepin (IC90, see Table S4) diluted in 3 mL of medium. After incubation periods of 6, 24, or 48 h, the cells were harvested, washed with the provided binding buffer, and stained with the annexin V-FITC reagent for 20 min at room temperature (RT) in the dark. After another washing step, the pellet was resuspended, and PI was added immediately before flow cytometric measurement at λEx/Em = 488/525 ± 50 nm for FITC and λEx/Em = 488/655–730 nm for PI with the MACSquant Analyzer 10 (Miltenyi Biotec, Teterow, Germany).

[15] = system: caspase-3 and -7 in A2780; experiment: luminescent caspase activity assay; type: cell-based, human; conditions: pentathiepins IC90, doxorubicin 0.5 µM, 24 h
Source text: (§3) To further corroborate this mode of cell death, we performed a luminescent caspase assay by measuring caspase-3 (cas-3) and caspase-7 (cas-7) activities (Figure 16). Both are executioner caspases that are present as zymogens (35 kDa) and become active after being cleaved (fragment sizes 17 and 19 kDa) by initiator caspases. Activated cas-3 and -7 in turn have several other substrates, including PARP1. In this assay, a precursor with a caspase-specific target sequence was converted into its luminescent form by active caspase-3 or -7, thereby emitting light that can be quantified.
(§4) To study the activation of the effector caspases -3 and -7, we performed a luminescence-based assay according to the manufacturer’s instructions (Caspase-Glo, Promega, Walldorf, Germany). Briefly, 5000 cells were seeded in 0.1 mL per well of a 96-well plate and allowed to adhere overnight. […] Afterwards, the standard protocol was followed, including a 30 min incubation time before measurement of luminescent signals by using the Spectramax i3x (Molecular Devices, Sunnyvale, CA, USA). After subtraction of the background luminescence the positive control and treatment conditions were related to the negative control.

[16] = system: caspase-3 and -7 in HAP-1.KO.GPx1; experiment: luminescent caspase activity assay; type: cell-based, human; conditions: pentathiepins IC90, doxorubicin 0.5 µM, 24 h
Source text: as §3, §4

[17] = system: caspase-3 and -7 in HAP-1; experiment: luminescent caspase activity assay; type: cell-based, human; conditions: pentathiepins IC90, doxorubicin 0.5 µM, 24 h
Source text: as §3, §4

[18] = system: caspase-3 and -7 in Siso; experiment: luminescent caspase activity assay; type: cell-based, human; conditions: pentathiepins IC90, doxorubicin 0.5 µM, 24 h
Source text: as §3, §4

[19] = system: PARP1 in HAP-1.KO.GPx1; experiment: Western blot of cleaved PARP1; type: cell-based, human; conditions: pentathiepins IC90, doxorubicin 0.5 µM, 24 h
Protocol: (§5) In addition to general flow cytometric and microscopic analyses, Western blotting was performed to detect the apoptosis-relevant protein PARP1 (poly(ADP-ribose) polymerase 1) and its cleavage fragment (Figure 17 and Figures S29–S34). Full-length PARP1 (116 kDa) is involved in DNA repair, and a cleavage by caspases (fragment sizes 24 and 89 kDa) caused by caspase-3 and -7 is a hallmark of late apoptosis.
(§6) All detected specific bands were normalized to the total protein load per lane by the TGX stain-free gel system from Bio-Rad.
(§7) All Western blot analyses were performed with reagents, material, and devices purchased from Bio-Rad (Feldkirchen, Germany) if not stated otherwise. To obtain protein lysates, we seeded cells and treated them as described for the other methods. […] Cells were harvested by trypsinization and centrifugation for 5 min at 500× g. After a washing step with PBS, the cell pellet was resuspended in lysis buffer (Tris 50 mM (pH 7.4), 100 mM NaCl, 100 mM NaF, 5 mM EDTA, 0.2 mM Na3VO4, 0.1% Triton-X, and 1% protease inhibitor cocktail added immediately before use). Lysis was supported by incubating the samples for 10 min in an ultrasonic bath before centrifuging for 10 min at 18,000 × g and 4 °C. Protein quantification was performed via the Bradford method using ROTI®nanoquant reagent (Carl Roth GmbH, Karlsruhe, Germany) and bovine serum albumin as calibration standard. For electrophoretic separation, 15–40 µg of protein was loaded per well of a polyacrylamide gel (Mini- or Midi-Protean® TGX stain-free gel, Bio-Rad, Feldkirchen, Germany), and subsequent blotting was performed with Trans-Blot®Turbo™TransferPack Mini or Midi PVDF membranes from Bio-Rad (Feldkirchen, Germany). The membranes were blocked with a 10% non-fat milk powder solution in Tris-buffered saline (TBS; 2.42 g/L Tris, 8.48 g/L NaCl in water) plus 0.5% Tween-20 (TBST) for 1 h at RT. Incubation with primary antibodies took place over night at 4 °C in a 1:1000 dilution in TBST containing BSA (1%). The secondary antibodies conjugated to horse-radish peroxidase were diluted 1:10,000 in TBST and 1% BSA, and incubated for 4 h at RT. A detection step followed, applying Clarity™Western ECL substrate with subsequent imaging via the INTAS Advanced Fluorescence Imager. Between all incubation steps, the blots were washed three times for 10 min with TBST. The bands were quantified with the ImageLab software and normalized using the total protein quantification of the TGX stain-free gel system from Bio-Rad.

[20] = system: PARP1 in HAP-1; experiment: Western blot of cleaved PARP1; type: cell-based, human; conditions: pentathiepins IC90, doxorubicin 0.5 µM, 24 h
Protocol: as §5, §6, §7

## CCOc1c2c(c3cnc4cc(C)c(C)cc4n13)SSSSS2 [(c)]
[1]; summary grade, first generation compound
  GPx1 inhibition: +
[2]
  GR/CAT inhibition: 0
[3]
  Cytotoxicity: +
[4]
  Antiproliferative effect: +
[5]
  ROS induction: +
[6]
  DNA cleavage: +
[7]
  Comet formation: +
[8]
  Apoptosis: +
[9]
  Ferroptosis: 0
[10]
  Morphological changes: +

## OO [Compound H2O2, hydrogen peroxide]
[11]
  intact genomic DNA (Comet head): 5%
[12]
  intact genomic DNA (Comet head): 63%
[13]
  intact genomic DNA (Comet head): about 10%

## COc1cccc2c1C(=O)c1c(O)c3c(c(O)c1C2=O)C[C@@](O)(C(=O)CO)C[C@@H]3O[C@H]1C[C@H](N)[C@H](O)[C@H](C)O1 [doxorubicin, reference compound]
[14]
  early apoptotic cells: about 50%
[15]
  caspase-3 and -7 activity vs solvent control: activation of the caspase-3 and -7 was confirmed
[16]
  caspase-3 and -7 activity vs solvent control: activation of the caspase-3 and -7 was confirmed
[17]
  caspase-3 and -7 activity vs solvent control: activation of the caspase-3 and -7 was confirmed
[18]
  caspase-3 and -7 activity vs solvent control: activation of the caspase-3 and -7 was confirmed
[19]
  cleaved PARP1: detected to statistically significant extents
[20]
  cleaved PARP1: detected to statistically significant extents

## O=C(O)CC(S)C(=O)O (stereo not drawn) [mercaptosuccinic acid]
[1]; GPx1 inhibition
  IC50: 5.9 µM
